What was measured:
human recombinant A2AAR = target: T1, human recombinant A2AAR (Homo sapiens, UniProt P29274); assay: Radioligand binding at human A2AAR ([3H]NECA displacement, CHO cell membranes)
T1 construct: expressed in transfected cells; membrane preparation
Protocol: Most of the compounds were also evaluated at A2BARs in a functional study using the GloSensor cAMP assay. […] In the case of A2BARs, Ki-values were calculated from IC50-values determined by the inhibition of NECA-stimulated adenylyl cyclase activity.
Preparation of membranes: Cell membranes for binding assays were prepared mechanically detaching the cells from the petri and suspending them in a cold hypotonic buffer (5 mM Tris/HCl, 2 mM EDTA, pH 7.4). The cell suspension was homogenized (Ultra-Turrax, 2 × 15 s at maximum speed) and the homogenate centrifuged for 10 min (4 °C) to 1000× g. […] The amount of the protein suspension was determined according to the […] using the BCA Protein Assay Kit (Pierce), frozen in liquid nitrogen, and stored at −80 °C.
Binding assays: The dissociation constants of the radioligand (KD) were calculated through saturation assays, while the dissociation constants of the compounds under study (Ki) were determined by competition experiments. All binding data were calculated by nonlinear regression curves using the software GraphPad Prism 5 (GraphPad Software, San Diego, CA, USA). The increasing concentrations of the radioligand saturation binding ([^3H]-CCPA for the A1 receptor subtype, [^3H]-NECA for the A2A receptor subtype, and [^3H]-HEMADO for the A3 receptor) subtype were incubated in a total volume of 250 μL containing 0.2 U/mL of Ado deaminase (ADA) and 12 micrograms of membrane proteins in the specific buffer. In competition experiments for the A1 receptor subtype, each compound was added at increasing concentrations, to the well containing 1 nM of [^3H]-CCPA, to a final volume of 200 μL. The samples were left to incubate for 3 h at room temperature, filtered in a filter 96-well plate (UniFilter GF/C, Perkin-Elmer Life and Analytical Science, Boston, MA) using the FilterMate Cell Harvester (Perkin-Elmer), and washed 3 times with cold distilled water. After drying the filter plate at 40 °C for 30′, they 20 μL of scintillating liquid (Microscint-20, Perkin-Elmer) was added to each well, and then the radioactivity was quantized with the MicroBeta2 Plate Counter (Perkin-Elmer). The conditions for binding experiments at A2A and A3 receptor subtypes were essentially the same as for the A1AR using [^3H]-NECA (N-ethylcarboxyamideAdo) at a concentration of 10 nM and [^3H]-HEMADO (2-(1-hexyne)-N^6-methylAdo) at a concentration of 1 nM as radioligands, respectively. The samples were incubated with 12 micrograms of protein for 3 h at room temperature and filtered as described above.
The non-specific binding was determined in the presence of 1 mM theophylline for the A1AR, or 100 µM R-PIA (N^6-(1-methyl-2-phenylethyl)Ado) for the A2A and A3 receptors.

[1] = system: BV-2 murine microglial cells; assay: RT-PCR expression of inflammatory mediators in LPS-activated BV-2 cells; format: cell-based
Protocol: BV-2 cells were treated with 13 or ANR 94 (10 nM) and activated with 100 ng/mL LPS for 24 h. Total RNA was isolated, and proinflammatory cytokine and enzyme expressions were measured using RT-PCR (Figure 5).
Cell Cultures and Treatments: BV-2 murine microglial cells (a gift from Prof. Elisabetta Blasi of the University of Modena and Reggio Emilia, Modena, Italy) were maintained at 37 °C and 5% CO2 in a humidified incubator and grown in DMEM supplemented with 10% (v/v) low-endotoxin fetal bovine serum (Euroclone—Milan, Italy), 2 mM L-glutamine, 50 U/mL penicillin, and 50 μg/mL streptomycin (Sigma-Aldrich–Merck, Milan, Italy). Cells were seeded at 50,000 cells/mL in 96-well tissue culture plates for the viability assay, in 6-well tissue culture plates for the Griess assay and RT-PCR assay. BV-2 cells were treated for 24 h with ANR 94 or 13 at different concentrations and then exposed to LPS (100 ng/mL; Sigma-Aldrich–Merck) for a further 24 h.
Real-Time Polymerase Chain Reaction (PCR): At the end of the experiments, total RNA was extracted by BV-2 cells using RNeasy Mini Kit (QIAGEN GmbH, Hilden, Germany). RNA concentraion and quality were measured on a NanoVue Spectrophotometer (GE Healthcare, Milano, Italy). iScript cDNA Synthesis Kit (Bio-Rad, Hercules, CA, USA) was used to synthesize cDNA starting from the extracted RNA, following the supplier’s instructions. PCR was performed by adding 2.5 μL (12.5 ng) of cDNA, 5 μL SsoAdvanced Universal SYBR Green Supermix (Bio-Rad), and 0.5 μL (500 nM) of each primer (Table 2) to a PCR tube. cDNA amplification was started at 95 °C for 30 s to activate the polymerase, followed by 40 cycles of 5 s at 95 °C and 30 s at 60 °C. Normalized expression levels were calculated relative to the control cells according to the 2^−ΔΔCT method.

[2] = 10 nM for 24 h, then 100 ng/mL LPS 24 h

T1 sequence (P29274 whole entry): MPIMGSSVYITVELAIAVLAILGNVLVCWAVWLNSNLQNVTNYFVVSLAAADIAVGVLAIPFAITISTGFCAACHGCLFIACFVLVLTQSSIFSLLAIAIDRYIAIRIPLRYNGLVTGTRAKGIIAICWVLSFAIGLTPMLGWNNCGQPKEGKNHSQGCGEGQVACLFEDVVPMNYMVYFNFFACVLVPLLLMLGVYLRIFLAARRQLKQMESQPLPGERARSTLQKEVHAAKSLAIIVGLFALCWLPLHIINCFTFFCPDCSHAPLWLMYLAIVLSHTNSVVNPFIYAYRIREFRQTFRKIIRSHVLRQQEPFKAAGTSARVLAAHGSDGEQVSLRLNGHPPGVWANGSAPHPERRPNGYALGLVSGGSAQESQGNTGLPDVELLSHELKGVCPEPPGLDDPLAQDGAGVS

SMILES: CCn1c(-c2ccco2)nc2c(N)nc(NCCc3ccc(O)cc3)nc21 [compound 13, 4-(2-((6-Amino-9-ethyl-8-(furan-2-yl)-9H-purin-2-yl)amino)ethyl)phenol]
- Ki (human recombinant A2AAR; displacement of [3H]NECA, CHO membranes, n = 3–5, means ± standard errors): 1.8 nM
- selectivity A1/A2A (human recombinant A2AAR; ratio of Ki values): 28
- selectivity A2B/A2A (human recombinant A2AAR; ratio of Ki values): 796
- selectivity A3/A2A (human recombinant A2AAR; ratio of Ki values): 7
- IL-10 mRNA expression ([1]; 10 nM before 100 ng/mL LPS 24 h): maintained IL-10 expression to a level comparable to the control cells
- COX-2 mRNA expression vs LPS [1, 2]: significantly reduced the expression
- IL-1β mRNA expression vs LPS [1, 2]: significantly reduced the expression
- IL-6 mRNA expression vs LPS [1, 2]: significantly reduced the expression
- iNOS mRNA expression vs LPS [1, 2]: significantly reduced the expression
- NLRP3 mRNA expression vs LPS ([1]; 10 nM pre-treatment, 100 ng/mL LPS 24 h): significantly reduced
